The series is described as follows: WST-1 assay of EGCG oxidation delay by aptamer. The format is physicochemical. Particulars: for comparison of EGCG oxidation delay effect of aptamer K4 and aptamer K5: 20 μM aptamer, 500 μM EGCG, 30 minutes, WST-1 assay (FIG. 5); for concentration dependence of EGCG oxidation delay (reduction of WST-1 delayed): 5, 10 and 20 uM aptamer with EGCG, WST-1 assay (FIGS. 3 and 4); for oxidation of EGCG delayed: at 20 uM aptamer, 500 mM EGCG (so in the source), room temperature 30 minutes, WST-1, 440 nm absorbance measured for 16 hours (FIG. 3, FIG. 4). Here is the method:
FIG. 1 is a graph showing the effect of delaying EGCG oxidation in aptamer K1 (SEQ ID NO: 1) to K9 (SEQ ID NO: 9) of the present invention. Nine types of aptamer K from aptamer K1 to aptamer K9 that bind to EGCG were prepared in the same manner as described above. After 20 μM aptamer K1 to K9 and 500 μM EGCG were reacted for 30 minutes, respectively, WST-1 assay was performed. The degree of delaying EGCG oxidation of each aptamer K was compared,
The aptamer (aptamers of SEQ ID NOs: 1 to 9) of the present invention reacting specifically with the EGCG obtained through the SELEX was dissolved in a folding buffer (1 mM MgCl2 in PBS) and then dissolved at 95° C.
After reacting 500 uM EGCG and one of the prepared 20 μM aptamers K1 to K9 and for 30 minutes, WST-1 assay was performed. The degree of EGCG oxidation delay of each aptamer K was compared.
500 mM EGCG and 5, 10, and 20 uM of the prepared aptamer K4 were reacted at room temperature for 30 minutes, respectively, and then WST-1 assay was performed. Prepared sample and WST-1([…]) was reacted to measure the formazan produced and with the plate reader, 440 nm absorbance was measured for 16 hours.
The aptamer K5 (aptamer of SEQ ID NO: 5) that specifically reacts with EGCG obtained through the SELEX was prepared in the same manner as described above and was tested for the effect of delaying EGCG oxidation.
Aptamers K4 and K5 binding to the EGCG were prepared in the same manner as described above. 20 μM aptamer K4, or aptamer K5, and 500 μM EGCG were reacted for 30 minutes, respectively, followed by WST-1 assay. It was confirmed that the EGCG oxidation delay effect of 20 μM aptamer K4 and aptamer K5 was similar (FIG. 5).
In general terms: Tetrazolium assays rely on reduction of a dye to a coloured formazan, in cell work by metabolically active cells.

Take “aptamer K4: DNA aptamer binding EGCG, 30 mer: CGACGACAGGAGGTGCGGCCCCGGCAGACC (DNA, backbone and methylation of C not given here)”: the “comparison of EGCG oxidation delay effect of aptamer K4 and aptamer K5” value is listed as “similar”; the “concentration dependence of EGCG oxidation delay (reduction of WST-1 delayed)” value is listed as “delayed (about 33% at 20 uM) depending on the concentration”; the “oxidation of EGCG delayed” value is “about 33%”.
Consider “aptamer K5: DNA aptamer binding EGCG, 29 mer: ACGCATGCCGGGCGCGCTCCCTGTCGTCC (DNA, backbone and methylation of C not given here)”, for which the “comparison of EGCG oxidation delay effect of aptamer K4 and aptamer K5” value is “similar”; the “concentration dependence of EGCG oxidation delay (reduction of WST-1 delayed)” value is given as “delayed (about 33% at 20 uM) depending on the concentration”; the “oxidation of EGCG delayed” value was “about 33%”. In addition, the “concentration dependence of EGCG oxidation delay (reduction of WST-1 delayed)” value (listed as 1(5)) is on record as “delayed depending on the concentration”.

Values taken from US20220002728A1, “METHOD FOR PREVENTING OXIDATION OF POLYPHENOL BY MEANS OF APTAMER, MATERIAL THEREOF, AND USE THEREOF” (Nexmos Co., LTD, priority 2018, published 2022).
